The data set relates to tumor-bearing mouse (M-MSV/M-MuLV rhabdomyosarcoma). The data set can be described thus: microPET/microCT imaging of a tumor-bearing mouse injected with [18F]FDG. It is filed as in vivo. Particulars: 272 microCi via tail vein; 1-h uptake and non-specific clearance; imaged 15 minutes; FDG produced in a microfluidic chip. The source says: Mouse Model. The tumor model used was a strongly immunogenic, non-metastasizing retrovirally-induced rhabdomyosarcoma (M-MSV/M-MuLV) (Fletcher et al., 2002, Tetrahedron 58:4735). MSV is a replication-defective, acutely transforming retrovirus carried with helper activity provided by M-MuLV, which encodes the gag, pol, and env components that are necessary for cell infection and replication (Worz et al., 2001, Chemical Engineering Science 56:1029). Rhabdomyosarcomas develop at the intramuscular inoculation site after a short latency period (7-10 days) and regress over a period of 4-5 wk following the induction of a strong immune reaction in immunocompetent adult mice. These lesions were characterized by a mixture of virus-infected myocytes and a large infiltrate of lymphocytes, granulocytes, and macrophages. Both cellular and humoral immune responses induced are dependent on presentation by H-2 D^b alleles (Watts et al., 2003, Current Opinion in Chemical Biology 7:380). Rejection was mediated by CD8+ cytolytic T cells, which recognize peptides from the gag and env proteins of M-MuLV, and requires help from CD4+ T cells (Kobayashi et al., 2004, Science 304:1305; Chan et al., 2003, Nano Letters 3:199; Kawaguchi et al., 2005, Angewandte Chemie-International Edition 44:2413)
Mouse imaging. The tumor bearing mouse was injected with 272 microCi of FDG via tail vein. […]

The source of these data is US8206593B2, “Microfluidic chemical reaction circuits” (Fluidigm Corporation, priority 2004, dated 2012).

On to “2-deoxy-2-[^18F]fluoro-D-glucose [[^18F]FDG]”, for which the “Organs visible in microPET/microCT image” value was “bladder, kidneys, heart, tumor and two lymph nodes”.
